Assay [1] deals with T1, Aminopeptidase N (APN) (Homo sapiens, UniProt P15144).
T1 construct: purchased R&D Systems
Put plainly: Aminopeptidase N enzyme assay (Ala-AMC substrate, fluorescence). Type of assay: biochemical. How it is done:
Single concentration studies at 10 μM: Aminopeptidase N assays were performed as described previously. Aminopeptidase N was purchased from R&D Systems. Amino-4-methylcoumarin (Ala-AMC) was purchased from Bachem. Briefly, 0.1 μg/μL APN was incubated with 1 μL of 1 mM inhibitor in 50 mM Tris buffer, pH 7.5, in 100 μL volume in a black 384-well plate in duplicate. The reaction was started with the addition of Ala-AMC substrate at a final concentration of 100 μM. The cleavage accumulation AMC was measured by exciting at 380 nm and reading the fluorescence at 460 nm on a Molecular Devices SpectraMax i3 plate reader for 20 min at room temperature. Percent inhibition is calculated in GraphPad Prism software using slopes in the linear range for each inhibitor at 10 μM.
Dose-Response Studies for APN: Aminopeptidase N enzyme assays were performed as described previously.^26 Briefly, 0.1 μg/μL APN was incubated with 1 μL inhibitor in 50 mM Tris buffer, pH 7.5, in 50 μL volume in a black 384-well plate in duplicate. Compounds were tested at 3× dilutions from 100 μM final concentration. The reaction was started with the addition of Ala-AMC substrate at a final concentration of 100 μM. The accumulation of AMC was measured by exciting at 380 nm and reading the fluorescence at 460 nm on a Molecular Devices SpectraMax i3 plate reader for 30 min at room temperature. Steady state velocities were used to determine IC50 values by fitting the velocities vs. inhibitor concentration to the sigmoidal concentration-response curve (variable slope) using GraphPad Prism.

In assay [2] the target is T2, Neprilysin (NEP) (Homo sapiens, UniProt P08473).
T2 construct: purchased Enzo Life Sciences
T2 sequence (P08473 whole entry, species assumed): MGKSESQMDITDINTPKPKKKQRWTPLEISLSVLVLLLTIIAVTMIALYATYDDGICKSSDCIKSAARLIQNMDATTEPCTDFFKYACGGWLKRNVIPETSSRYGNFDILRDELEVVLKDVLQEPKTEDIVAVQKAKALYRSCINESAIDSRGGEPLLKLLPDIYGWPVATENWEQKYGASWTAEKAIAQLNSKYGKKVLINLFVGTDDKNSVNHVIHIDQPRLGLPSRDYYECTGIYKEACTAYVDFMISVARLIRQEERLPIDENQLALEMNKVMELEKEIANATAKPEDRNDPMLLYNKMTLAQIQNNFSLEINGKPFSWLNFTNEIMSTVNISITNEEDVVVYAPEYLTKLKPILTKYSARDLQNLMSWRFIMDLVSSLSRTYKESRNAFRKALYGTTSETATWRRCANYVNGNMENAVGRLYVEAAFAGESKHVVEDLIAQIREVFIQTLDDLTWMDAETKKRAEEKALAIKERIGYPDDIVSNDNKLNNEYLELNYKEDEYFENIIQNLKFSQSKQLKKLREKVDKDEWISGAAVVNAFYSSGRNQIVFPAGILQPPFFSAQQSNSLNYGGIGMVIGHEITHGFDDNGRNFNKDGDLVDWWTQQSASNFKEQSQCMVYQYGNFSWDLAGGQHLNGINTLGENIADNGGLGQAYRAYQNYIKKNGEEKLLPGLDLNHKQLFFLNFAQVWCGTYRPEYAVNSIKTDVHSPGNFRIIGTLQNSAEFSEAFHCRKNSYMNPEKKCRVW
Put plainly: Neprilysin inhibition assay (Mca-[…](Dpn) FRET substrate). Type of assay: biochemical. How it is done:
Single concentration studies at 10 μM: Neprilysin inhibition assays were performed as described previously. The substrate Mca-[…](Dpn) and endopeptidase NEP were purchased from Enzo Life Sciences. […] Plate was mixed with a plate shaker at 1500 rpm for 30 seconds. The reaction was started with the addition of 6 μM of the FRET substrate and mixed for another 30 seconds at 1500 rpm. Mca fluorescence is quenched by Dpn until cleavage at Phe by NEP. The accumulation of the Mca was measured by exciting at 320 nm and reading the fluorescence at 405 nm on a Molecular Devices M5e plate reader for 40 minutes at room temperature. Percent inhibition is calculated in GraphPad Prism software using slopes in the linear range for each inhibitor at 10 μM.
Dose-Response Studies for NEP: Neprilysin inhibition assays were performed as described previously. The substrate Mca-[…](Dpn) and endopeptidase NEP were purchased from Enzo Life Sciences. Briefly, 0.5 nM NEP was incubated with 0.5 μL inhibitor. Compounds were tested at 3× dilutions from 100 μM final concentration in 50 mM HEPES pH 6.5 in 50 μL total volume in a black 384-well plate. Plate was mixed with a plate shaker at 1500 rpm for 30 seconds. The reaction was started with the addition of 6 μM of the FRET substrate and mixed for another 30 seconds at 1500 rpm. Mca fluorescence is quenched by Dpn until cleavage at Phe by NEP. The accumulation of the Mca was measured by exciting at 320 nm and reading the fluorescence at 405 nm on a Molecular Devices M5e plate reader for 40 minutes at room temperature. Steady state velocities were used to determine IC50 values by fitting the velocities vs. inhibitor concentration to the sigmoidal concentration-response curve (variable slope) using GraphPad Prism.

Assay [3] concerns mice. Put plainly: Co-administration of opioid antagonist naloxone in hot-plate and tail-flick assays. It counts as in vivo, mouse. How it is done:
Naloxone dissolved in saline was either administered subcutaneously (s.c.; dosage: 5 mg/Kg) via an injection to the interscapular skin, or it was given intracerebroventricularly (5 μg per mouse).
Naloxone is a broad-spectrum opioid receptor antagonist. It is known to interact with, mu- (μ-), delta- (δ-), and kappa- (κ-) opioid receptors, with highest affinity for the μ receptors. […] Naloxone dissolved in saline was delivered subcutaneously (s.c.) via an injection to the interscapular skin.
5 mg/Kg naloxone dissolved in saline was administered subcutaneously (s.c.) via an injection to the interscapular skin. Analgesic efficacy for various time-points was determined in hot-plate and tail-flick assays as detailed above.
In general terms: Hot-plate and tail-flick tests time the reaction to a heat stimulus.

Assay [4] deals with male CF1 mice. Nature of the assay: Hot-plate test (acute thermal pain).
Procedure: The hot plate was the top surface of an enclosed cylindrical glass bath through which thermostatically controlled hot water was circulated. Under the conditions used, the temperature of the surface of the cylinder was maintained at 55° C. […] Reaction times were also determined twice for each mouse at 15-min intervals half an hour before injecting the drug to establish a baseline reaction time control value. Mice having a mean reaction time greater than 13 seconds were excluded as non-responders.
In this transient pain model, a thermal analgesiometer hot-plate was utilized for the determination of antinociceptive potency of test compounds against acute thermal stimulus. Mice were administered compounds via intraperitoneal (i.p.) or intracerebroventricular (i.c.v.) routes. […] The results are expressed as a percent of the maximum possible effect (% MPE) according to the equation: % MPE=[(Post-drug latency−Pre-drug latency)/(Cutoff−Pre-drug latency)]×100.
The hot-plate was the top surface of an enclosed cylindrical glass bath through which thermostatically controlled hot water was circulated. Under the conditions used, the temperature of the surface of the cylinder was maintained at 55° C. […] Test compounds were administered via intraperitoneal (i.p.) or intracerebroventricular (i.c.v.) routes. […] Animals with a mean reaction time greater than 13 seconds were excluded as non-responders.
Where [5] appears, read: dose response, 3x dilutions from 100 μM.

Broadly, the IC50 is the concentration that inhibits the measured activity by half. Read a low IC50 as greater potency in that assay. Broadly, the inhibition is the relative decrease from the control value, in per cent.

Molecules are shown by their SMILES. “And” between values parts separate entries of the source, which are not always exact repeats. Equal entries are not always repeated. “Also recorded” adds a separate entry of the source.

T1 sequence (P15144 whole entry): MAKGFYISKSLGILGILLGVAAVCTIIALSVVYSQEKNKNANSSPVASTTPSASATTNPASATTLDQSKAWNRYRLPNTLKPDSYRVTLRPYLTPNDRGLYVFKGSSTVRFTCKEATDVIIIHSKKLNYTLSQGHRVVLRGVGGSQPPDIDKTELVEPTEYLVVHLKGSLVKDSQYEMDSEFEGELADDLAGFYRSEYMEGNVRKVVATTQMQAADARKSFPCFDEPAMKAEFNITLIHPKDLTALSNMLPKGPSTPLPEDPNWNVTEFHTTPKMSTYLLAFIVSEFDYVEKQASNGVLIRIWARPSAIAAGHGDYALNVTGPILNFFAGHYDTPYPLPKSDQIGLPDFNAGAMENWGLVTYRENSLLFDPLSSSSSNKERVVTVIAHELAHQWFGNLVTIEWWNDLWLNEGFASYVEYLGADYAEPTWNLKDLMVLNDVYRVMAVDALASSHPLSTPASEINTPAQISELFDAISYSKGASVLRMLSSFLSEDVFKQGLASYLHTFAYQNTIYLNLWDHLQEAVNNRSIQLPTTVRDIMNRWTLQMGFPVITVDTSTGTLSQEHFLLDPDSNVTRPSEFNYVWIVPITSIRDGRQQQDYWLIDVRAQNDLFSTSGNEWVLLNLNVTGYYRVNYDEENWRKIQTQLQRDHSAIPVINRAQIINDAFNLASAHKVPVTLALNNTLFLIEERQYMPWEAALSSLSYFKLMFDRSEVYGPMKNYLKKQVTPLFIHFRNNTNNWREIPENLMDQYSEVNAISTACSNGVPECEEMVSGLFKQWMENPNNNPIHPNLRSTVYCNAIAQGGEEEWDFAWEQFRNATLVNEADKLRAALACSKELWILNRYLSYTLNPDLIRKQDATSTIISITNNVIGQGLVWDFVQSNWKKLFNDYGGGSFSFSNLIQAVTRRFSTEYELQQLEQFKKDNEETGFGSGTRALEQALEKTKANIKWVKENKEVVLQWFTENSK

Take `CC(C)C[C@@H](C(=O)N[C@H](C(=O)OC1CCCC1)c1ccccc1)[C@H](O)C(=O)NO` [Tosedostat]: in assay [1], the “activity against APN (in words)” value is “micromolar activity against APN”. The IC50 in assay [1] (setting [5]) is 930 nM and 933 nM; in assay [2] (setting [5]) it was 900 nM and 890 nM. Also, the inhibition at 10 µM in assay [1] (inhibitor 10 μM, read-out: APN @ 10 μM (percent inhibition)) is 83%; in assay [2] (inhibitor 10 μM, read-out: NEP @ 10 μM (percent inhibition)) it was 79%. Also, the “effect of centrally administered naloxone on analgesic response of tosedostat” value in assay [3] (tosedostat 58.1 mg/Kg i.p. + naloxone 5 μg per mouse i.c.v.) is on record as “no attenuation of analgesic response”. The “effect of subcutaneous naloxone on analgesic action of tosedostat” value in assay [3] (tosedostat 58.1 mg/Kg i.p. + naloxone 5 mg/Kg s.c.) is recorded as “partially blocked the analgesic action”. For the same molecule, the “analgesic effect (% MPE time course)” value in assay [4] (i.c.v. 100 μg per mouse, 15-90 min post injection) is given as “did not show analgesic effect; also recorded: nominal analgesic effect; also recorded: did not register substantial analgesic outcome; also recorded: ineffective in furnishing an antinociceptive response”. In addition, in assay [4] (i.c.v. 100 μg per mouse, 15 minutes after injection), the “analgesic effect, single time-point” value is listed as “nominal analgesic effect”. For the same molecule, in assay [4] (i.p., over the course of 90 minutes), the “analgesic response in hot-plate compared to tail-flick experiments” value was “about two-fold better analgesic response”.

For the origin of these results see patent US10925851B2 (Regents of the University of Minnesota, priority 2018, dated 2021).
